These results are taken from patent US10570099B2, “Salts of an epidermal growth factor receptor kinase inhibitor” (Celgene CAR LLC, priority 2012, dated 2020).

The subject of data set [1] is human non-small cell lung cancer cell. The conditions noted are these: cited from earlier work.
Data set [2] shares this test system. The conditions noted are these: cited from earlier work. The source holds these as a separate data set.
Data set [3] can be described thus: Slurry in pH 6.2 aqueous medium (conversion to unknown solid form). The format is physicochemical. The conditions noted are these: slurry as for the hydrobromide at pH 6.2, XRPD. On the procedure: In attempts to characterize this form, as well as establish the rate of conversion to this form while slurrying the material, the following experiments were carried out. Initially, approximately 100 mg of the hydrobromide (1 equiv.) material was slurried in a pH 6.2 aqueous solution at ambient and XRPD analysis was carried out at time points 5 min., 1 hr, 2 hrs, 4 hrs and 8 hrs. Further analysis was then also carried out on the converted material.

The test system of a further data set is mutant EGFR kinase. To be noted: enzymatic and cellular assays; cited from earlier work.
A short description of data set [4]: Intrinsic dissolution of compressed discs. The format is physicochemical. The protocol:
A Sotax AT7 dissolution bath (USP 2, EP 2 apparatus) was used for the dissolution study in which paddles were used to stir the media. All tests were carried out at 37° C. and a paddle speed of 100 rpm.
(§1) Approximately 100-120 mg of each form was compressed into discs by placing the material into a die (diameter: 13 mm) and compressing the die under 5 tons of pressure in a hydraulic press for ca. 2 minutes. A Sotax AT7 (conformed to EP2 and USP2) dissolution instrument was used containing paddles to stir the media at 100 rpm. Dissolution media of pH 3 (1% SDS) and pH 4.5 (1% SDS) were prepared using citrate/phosphate buffer. All materials were tested in 750 ml of the buffer medium. Discs were added at time=0 seconds and allowed to sink to the bottom of the dissolution vessel before stirring began. ca. 1 ml aliquots of media were extracted from the dissolution vessels at times 1, 5, 10, 15, 30, 60, 120, 240 minutes and 24 hours, and tested for dissolved salt concentration by HPLC-UV. The dissolution tests were carried out in duplicate. For both dissolution media, the peak areas for the initial time points (up to 15 minutes), fell below the limit of quantification, however, when plotting Dissolution rate vs. time, the steepest part of the curve occurs during these early time points.
as §1, with “material” for “each form”, “API” for “dissolved salt”

Data set [5] can be described thus: Dynamic vapour sorption (DVS). The data set is classed as physicochemical. On the procedure: For dynamic vapour sorption (DVS), approximately 10-20 mg of sample was placed into a wire mesh vapour sorption balance pan and loaded into a DVS-1 dynamic vapour sorption balance by Surface Measurement Systems. The sample was subjected to a ramping profile from 20-90% relative humidity (RH) at 10% increments, maintaining the sample at each step until a stable weight had been achieved (99.5% step completion). After completion of the sorption cycle, the sample was dried using the same procedure, but all the way down to 0% RH and finally taken back to the starting point of 20% RH. The weight change during the sorption/desorption cycles were plotted, allowing for the hygroscopic nature of the sample to be determined.

Data set [6] can be described thus: Salt disproportionation study (slurry in deionized water). The data set is classed as physicochemical. To be noted: for pH of the supernatant: deionized water slurry; for Disproportionation study, result of slurrying (XRPD): deionized water, ambient. The protocol:
The pH of the supernatant was also monitored.
The hydrobromide salt was slurried in deionised water at ambient temperature (ca. 22° C.). […] The pH of the supernatant was also monitored.

The nature of data set [7]: 1 week stability study (XRPD and HPLC). To be noted: 1 week. The data set is classed as physicochemical. The protocol: (§2) Resulting solids were analysed by XRPD and HPLC to establish if any changes had occurred.
as §2
The resulting solids were analysed by XRPD and HPLC to establish if any changes had occurred.

The nature of data set [8]: Thermodynamic solubility in media of various pH (HPLC; XRPD of excess solids). The conditions noted are these: for Thermodynamic Solubility: ca. 24 hours. On the procedure:
The remaining solids were also analysed by XRPD analysis to establish if any changes in the solid form occurred.
The remaining solids were also analysed by XRPD analysis to establish if any changes in the solid form occurred. For the buffer solutions, KCl/HCl was used for pH 1 and citrate/phosphate combinations for pH 3, 4.5 and 6.6.
The remaining solids were also analysed by XRPD analysis to establish if any changes in the solid form occurred. For the buffer solutions, KCl/HCl was used for pH 1 and citric acid/sodium citrate combinations for pH 3, 4.5 and 6.2.
The solids were then removed by filtration and tested by XRPD analysis. The mother liquors were analyzed by HPLC to determine API solubility.
For the buffer solutions, KCl/HCl was used for pH 1 and citrate/phosphate combinations for pH 3, 4.5 and 6.6 (10 mM). The pH of the solutions was also measured prior to HPLC analysis.

Data set [9] can be described thus: 1 week stability of primary screen salts at 40° C./75% RH and 80° C. (open vials, XRPD). To be noted: listed as Besylate (2 equiv.) Form I. The format is physicochemical. The protocol:
(open vials). TGA was carried out after the stability studies for samples containing sufficient material.

Data set [10] can be described thus: Hydration study (slurry in solvent:water mixtures, XRPD). The format is physicochemical. The conditions noted are these: ambient, ca. 3-4 days. The protocol:
The resulting solids were then analyzed by XRPD to determine if any changes had occurred on slurrying.
Slurries of the hydrobromide salt were created in acetone:water mixtures (3%, 5% and 10%) and stirred at ambient for ca. 3 days. The resulting solids were then analysed by XRPD to determine if any changes had occurred on slurrying.
Slurries were created using ca. 200 mg of Form I salt material in 2 mL of the appropriate solvent system. These were stirred at ca. 55° C. for 6 hours.
Slurries were created using ca. 200 mg of Form I salt material in 2 mL of the appropriate solvent system.

Where [11] appears, read: 40° C./75% RH, closed (crimped) vial.

For the compound `C=CC(=O)Nc1cccc(Nc2nc(Nc3ccc(N4CCN(C(C)=O)CC4)cc3OC)ncc2C(F)(F)F)c1` [Compound 1, N-(3-(2-(4-(4-acetylpiperazin-1-yl)-2-methoxyphenylamino)-5-(trifluoromethyl)pyrimidin-4-ylamino)phenyl)acrylamide], the “inhibition of cell proliferation in vivo” value in [1] was “inhibit”. For the same compound, the “inhibition of cell proliferation in vitro” value in data set [2] is given as “inhibit”. Also, the “solid form after slurry experiment” value in data set [3] is listed as “remained as the free base Form I”. Also, the “inhibition of mutant EGFR kinase” value with mutant EGFR kinase is given as “selective covalent, irreversible inhibition”.
For `C=CC(=O)Nc1cccc(Nc2nc(Nc3ccc(N4CCN(C(C)=O)CC4)cc3OC)ncc2C(F)(F)F)c1.O=S(=O)(O)c1ccccc1.O=S(=O)(O)c1ccccc1` [bis-besylate salt], the intrinsic dissolution value result is recorded as “approximately 0.36 mg/cm^2/min” in data set [4] (pH 3.0 (1% SDS), early time points, tablet 1); around 0.38 mg/cm^2/min in data set [4] (pH 3.0 (1% SDS), early time points, tablet 2); 0.08 mg/cm^2/min in [4] (pH 3.0 (1% SDS), later time points, tablet 1); 0.07 mg/cm^2/min in data set [4] (pH 3.0 (1% SDS), later time points, tablet 2); “approximately 0.61 mg/cm^2/min” in [4] (pH 4.5 (1% SDS), early time points, tablet 1); “approximately 0.61 mg/cm^2/min” in [4] (pH 4.5 (1% SDS), early time points, tablet 2). Besides, the intrinsic dissolution value in [4] (pH 4.5 (1% SDS), later time points, tablet 1) was found to be 0.09 mg/cm^2/min; in [4] (pH 4.5 (1% SDS), later time points, tablet 2), 0.08 mg/cm^2/min. In addition, the “post DVS XRPD analysis (polymorphic form)” value in data set [5] (after DVS cycles) is reported as “change in polymorphic form”. Moreover, the “water uptake (DVS)” value in [5] (between 20 and 70% RH) was “ca. 2.2%”. For the same compound, the “pH of the supernatant” value in [6] (1 hr) was “pH 2-3”; in data set [6] (24 hrs), “pH 1-2”; in [6] (48 hrs), “pH 1-2”. The “Disproportionation study, result of slurrying (XRPD)” value in data set [6] (1 hr) is reported as “Yellow gum present”; in data set [6] (24 hrs) it was “Different from starting material, appears to”; in [6] (48 hrs), “Different from starting material, appears to”. Besides, the “HPLC purity after storage” value in [7] (setting [11]) is reported as 97.35%; in data set [7] (40° C./75% RH, open vial), 97.22%; in data set [7] (80° C., open vial), 97.20%. For the same compound, the XRPD after storage result was “No change in polymorphic form” in data set [7] (setting [11]); “Change in polymorphic form,” in [7] (40° C./75% RH, open vial); “Corresponds predominantly with input” in [7] (80° C., open vial). Moreover, the “XRPD of excess solids” value in data set [8] (pH 1.0, KCl/HCl) was “Diffractogram corresponds with the hydrated”; in [8] (pH 3.0, Citrate/Phosphate), “Change in diffractogram - does not correspond”; in data set [8] (pH 3.0, KHP/HCl), “Change in diffractogram - does not correspond”; in [8] (pH 4.5, Citrate/Phosphate), “Change in diffractogram - does not correspond”; in data set [8] (pH 4.5, KHP/NaOH), “Change in diffractogram - does not correspond”; in data set [8] (pH 6.6, Citrate/Phosphate) it was “Change in diffractogram - does not correspond”. The “XRPD of excess solids” value in data set [8] (pH 6.6, Phosphate/NaOH) was “Change in diffractogram - does not correspond”. The “Thermodynamic Solubility” value was 4930 µg/mL in data set [8] (pH 1.0, KCl/HCl buffer); 240 µg/mL in data set [8] (pH 3.0, Citrate/Phosphate); 260 µg/mL in data set [8] (pH 3.0, KHP/HCl); 430 µg/mL in [8] (pH 4.5, Citrate/Phosphate); 100 µg/mL in [8] (pH 4.5, KHP/NaOH); 660 µg/mL in [8] (pH 6.6, Citrate/Phosphate). Also, the “Thermodynamic Solubility” value in data set [8] (pH 6.6, Phosphate/NaOH) was determined as 170 µg/mL. Besides, in data set [9], the “Stability 40° C./75% RH (open conditions)” value is “Solid/gum present”. For the same compound, the entries for the “Hydration study, result of slurrying” value in data set [10] (Acetone:water (3%)) and in data set [10] (Acetone:water (10%)) were “Corresponds with the input bis-” and “Different from the bis-besylate input”, respectively.
